Assay results reported in paper PMC12921516 (ACS Bio & Med Chem Au, 2025).

How the values were obtained:
[1] = target: T1, hPTP1B1–400 (Homo sapiens, UniProt P18031); test: PTP1B inhibition, pNPP hydrolysis, long form; assay type: biochemical; conditions: pNPP substrate, 15 min 37 °C, pH 6.8; ± S.D
T1 construct: h PTP1B 1–400 IC 50 (μM ± S.D); made in house
T1 sequence (P18031 1-400): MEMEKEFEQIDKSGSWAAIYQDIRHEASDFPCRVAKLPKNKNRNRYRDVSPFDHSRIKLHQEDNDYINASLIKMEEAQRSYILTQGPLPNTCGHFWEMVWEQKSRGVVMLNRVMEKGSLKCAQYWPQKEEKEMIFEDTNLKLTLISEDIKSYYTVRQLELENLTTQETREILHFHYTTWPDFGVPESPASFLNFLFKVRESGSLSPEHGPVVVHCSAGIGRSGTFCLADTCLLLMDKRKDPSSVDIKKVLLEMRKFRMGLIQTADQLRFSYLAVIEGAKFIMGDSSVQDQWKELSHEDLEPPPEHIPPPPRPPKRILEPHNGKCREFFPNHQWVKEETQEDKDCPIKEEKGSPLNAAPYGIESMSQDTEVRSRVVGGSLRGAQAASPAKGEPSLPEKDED
Experimental: The inhibitory activity of PTP1B was assessed using the long form of the PTP1B enzyme (hPTP1B1–400). This enzyme comprises a highly conserved N-terminal catalytic domain, known as the PTP domain (PTP1B1–300), in addition to an intrinsically disordered regulatory domain (PTP1B301–400).
The IC50 values obtained from these tests are detailed in Table .
Aliquots of 0–10 μL of the test compounds (triplicate) were taken and incubated for 15 min at 37 °C with 85 μL of Tris buffer solution (50 mM, pH 6.8) containing PTP1B enzyme and 5 μL of p-nitrophenyl phosphate substrate (pNPP, 10 mM). The absorbance of the hydrolysis product, p-nitrophenol (pNP), was measured at 405 nm using a 96-microplate absorbance reader (Accuris SmartReader 96). The inhibitory activity was determined according to eq . %enzyme=(A405b/A405c)×100 1 Where: % enzyme is the percentage of inhibition for PTP1B or TCPTP
The IC50 was calculated using regression analysis, eq : %inhibition=A100/1+(I/IC50)^s 2 Where: A100: Maximum inhibition

[2] = target: T1, hPTP1B1–400; test: Enzymatic kinetics studies (Lineweaver–Burk, model fitting); assay type: biochemical; conditions: for inhibition type: hPTP1B1–400, best fit model; for Ki: hPTP1B1–400, pNPP 0.1–0.5 mM; for Km / Vmax: hPTP1B1–400 with inhibitor
Experimental: Kinetic analyses were conducted using varying concentrations of substrate and inhibitor.
Five increasing concentrations of each inhibitor were tested, according to their previously determined IC50 values. The negative control was prepared by omitting the inhibitor in the presence of the enzyme and substrate. The Supporting Information includes detailed eqs (E1–E5) used to determine the kinetic parameters and mechanisms involved in PTP1B inhibition.
Equation 1 was used to obtain enzyme kinetic parameters by fitting data to the Michaelis-Menten model (Origin Pro
The equations defined for the following non-linear inhibition models were used to determine the mechanism of
PTP1B inhibition: competitive (E2), non-competitive (E3), uncompetitive (E4), and mixed (E5) (Origin Pro 2018 (64
(1+ ( ))(x05nh ) + (1+ ( )) (x05 nh)
Vmax is the maximum velocity, x is the substrate concentration, i is the inhibitor concentration, nh is the number of
Hill. Ki is the inhibition constant, and Km is the Michaelis constant.

[3] = tested on: STZ-induced diabetic CD-1 mice; test: Insulin tolerance test (ITT); assay type: in vivo; conditions: single intragastric dose 50 mg/kg, insulin 0.75 IU after 30 min
Experimental: The studies were carried out on compounds 4b, 4g, and 5g using both normoglycemic CD1 mice and a mouse model of noninsulin-dependent diabetes mellitus (NIDDM). An oral glucose tolerance test (OGTT) was conducted on the normoglycemic mice to evaluate the hypoglycemic activity of the compounds, while an insulin tolerance test (ITT) was performed on hyperglycemic CD1 mice to assess the compounds' capacity to enhance insulin sensitivity in streptozotocin-induced diabetic mice. Pioglitazone and GA were included as positive controls. […] Healthy six-week-old male CD-1 mice, weighing between 30 and 40 g, were maintained at a temperature of 25 ± 2 °C, under a 12-h light/dark cycle and 45-65% humidity throughout the experimental period. The mice were provided with a rodent pelleted diet (Harlan Laboratories, Indianapolis, USA) and had access to water ad libitum. Sixteen hours before the experiment, all mice were fasted but still had free access to water. All animal procedures were conducted in accordance with the Mexican Federal Regulations for Animal Experimentation and Care (SAGARPA, NOM-062-ZOO-1999, Mexico) and received approval from the Institutional Animal Care and Use Committee, following guidelines outlined in the US National Institutes of Health publication (No. 85-23, revised 1985). Streptozotocin (STZ) was dissolved in citrate buffer (pH 4.5), while nicotinamide was dissolved in a normal physiological saline solution. The noninsulin-dependent diabetes (NIDD) mouse model was induced in overnight-fasted mice through a single intraperitoneal injection of STZ (100 mg/kg). Nicotinamide was administered 15 min prior, at a dose of 20 mg/kg via intraperitoneal injection. […] Roche). […] Animals were categorized into five groups, each consisting of four mice (n = 4). The experimental groups received an oral suspension of compounds 4b, 4g, and 5g, prepared in a 10% Tween 20/water solution, at a dosage of 50 mg/kg body weight. A control group was treated with only the 10% Tween 20 solution. The final group was administered pioglitazone at a dose of 45 mg/kg, which is recognized as a reference drug for insulin sensitization. To evaluate glucose levels, blood samples were collected from the tails of the mice at 0, 30, 60, 90, and 120 min after the administration of the vehicle, test compound, or drug. Blood glucose concentration was measured using a commercial glucometer (Accu-Chek, Performa; Roche) and the enzymatic glucose dehydrogenase method. The percentage variation in glycemia was calculated by comparing the selected postadministration glycemia (G x ) with the initial value (G0) using the following formula: %[…]=[(Gx-G0)/G0]×100 where G0 represents the initial glycemia values and Gx indicates the glycemia values at +30, + 60, + 90, and +120 min, respectively. To evaluate the ability of GA derivatives to enhance insulin sensitivity in STZ-induced diabetic CD-1 mice, compounds 4b, 4g, and 5g were tested. Glycyrrhetinic acid (GA) and Pioglitazone served as positive controls. The GA derivatives and the positive controls were administered to the diabetic animals, followed by the administration of human rapid-acting insulin (0.75 IU) after 30 min. Subsequently, glucose levels were measured every 15 min.

Structure (SMILES) | IC50 [1] | also measured
CC1(C)c2[nH]c3ccc(SC(F)(F)F)cc3c2C[C@]2(C)[C@H]3C(=O)C=C4[C@@H]5C[C@@](C)(C(=O)O)CC[C@]5(C)CC[C@@]4(C)[C@]3(C)CC[C@@H]12 [compound 4c, (20β)-5′-(Trifluormethylthio)-11-oxo-1′H-oleana-2,12-dieno[3,2-b]indol-29-oic Acid] | 5.6 ± 0.12 µM | 
CC1(C)c2[nH]c3ccc(C(=O)O)cc3c2C[C@]2(C)[C@H]3C(=O)C=C4[C@@H]5C[C@@](C)(C(=O)O)CC[C@]5(C)CC[C@@]4(C)[C@]3(C)CC[C@@H]12 [compound 4e, (20β)-5′-Carboxy-11-oxo-1′H-oleana-2,12-dieno[3,2-b]indol-29-oic Acid] | 4.33 ± 0.58 µM | inhibition type [2]: uncompetitive; Ki [2]: 4.05 ± 0.67 µM; Km [2]: 990 ± 190 µM; Vmax [2]: 1.64 ± 0.23 mM/min
CC1(C)c2[nH]c3ccc(OC(F)(F)F)cc3c2C[C@]2(C)[C@H]3C(=O)C=C4[C@@H]5C[C@@](C)(C(=O)O)CC[C@]5(C)CC[C@@]4(C)[C@]3(C)CC[C@@H]12 [compound 4a, (20β)-5′-(Trifluoromethoxy)-11-oxo-1′H-oleana-2,12-dieno[3,2-b]indol-29-oic Acid] | 2.13 ± 0.13 µM | inhibition type [2]: uncompetitive; Ki [2]: 0.74 ± 0.1 µM; Km [2]: 1840 ± 190 µM; Vmax [2]: 1.06 ± 0.24 mM/min
CC1(C)[C@@H](O)CC[C@]2(C)[C@H]3C(=O)C=C4[C@@H]5C[C@@](C)(C(=O)O)CC[C@]5(C)CC[C@@]4(C)[C@]3(C)CC[C@@H]12 [GA, Glycyrrhetinic acid, reference compound] |  | glycemia variation in ITT [3]: markedly decrease glycemia variation
CC1(C)c2[nH]c3ccc(C(N)=O)cc3c2C[C@]2(C)[C@H]3C(=O)C=C4[C@@H]5C[C@@](C)(C(=O)O)CC[C@]5(C)CC[C@@]4(C)[C@]3(C)CC[C@@H]12 [compound 4f, (20β)-5′-Carbamoyl-11-oxo-1′H-oleana-2,12-dieno[3,2-b]indol-29-oic Acid] | 9.3 ± 0.25 µM | 
CC1(C)c2c(cnn2-c2ccc(OC(F)F)cc2)C[C@]2(C)[C@H]3C(=O)C=C4[C@@H]5C[C@@](C)(C(=O)O)CC[C@]5(C)CC[C@@]4(C)[C@]3(C)CC[C@@H]12 [compound 5b, (20β)-2′-[4-(Difluoromethoxy)phenyl]-11-Oxo-2′H-oleana-2,12-dieno[3,2-c]pyrazol-29-oic Acid] | 6.19 ± 0.58 µM | 
CC1(C)c2[nH]c3ccc(C#N)cc3c2C[C@]2(C)[C@H]3C(=O)C=C4[C@@H]5C[C@@](C)(C(=O)O)CC[C@]5(C)CC[C@@]4(C)[C@]3(C)CC[C@@H]12 [compound 4d, (20β)-5′-Cyano-11-oxo-1′H-oleana-2,12-dieno[3,2-b]indol-29-oic Acid] | 22.4 ± 0.53 µM | 
CC1(C)c2c(cnn2-c2ccc(SC(F)(F)F)cc2)C[C@]2(C)[C@H]3C(=O)C=C4[C@@H]5C[C@@](C)(C(=O)O)CC[C@]5(C)CC[C@@]4(C)[C@]3(C)CC[C@@H]12 [compound 5c, (20β)-11-Oxo-2′-[4-(trifluoromethylthio)phenyl]-2′H-oleana-2,12-dieno[3,2-c]pyrazol-29-oic Acid] | 2.08 ± 0.04 µM | 
CC1(C)c2c(cnn2-c2ccc(OC(F)(F)F)cc2)C[C@]2(C)[C@H]3C(=O)C=C4[C@@H]5C[C@@](C)(C(=O)O)CC[C@]5(C)CC[C@@]4(C)[C@]3(C)CC[C@@H]12 [compound 5a, (20β)-11-Oxo-2′-[4-(trifluoromethoxy)phenyl]-2′H-oleana-2,12-dieno[3,2-c]pyrazol-29-oic acid] | 2.29 ± 0.15 µM | 
CC1(C)c2c(cnn2-c2ccc(C(N)=O)cc2)C[C@]2(C)[C@H]3C(=O)C=C4[C@@H]5C[C@@](C)(C(=O)O)CC[C@]5(C)CC[C@@]4(C)[C@]3(C)CC[C@@H]12 [compound 5f, (20β)-2′-(4-Carbamoylphenyl)-11-oxo-2′H-oleana-2,12-dieno[3,2-c]pyrazol-29-oic Acid] | 10.3 ± 0.51 µM | 
CC1(C)c2c(cnn2-c2ccc(C#N)cc2)C[C@]2(C)[C@H]3C(=O)C=C4[C@@H]5C[C@@](C)(C(=O)O)CC[C@]5(C)CC[C@@]4(C)[C@]3(C)CC[C@@H]12 [compound 5d, (20β)-2′-(4-Cyanophenyl)-11-oxo-2′H-oleana-2,12-dieno[3,2-c]pyrazol-29-oic Acid] | 6.83 ± 0.17 µM | 
